For five compounds, Kd results are on record in patent publication US20260207798A1, “CYCLIC PEPTIDES AS PET IMAGING AGENTS OF GRANZYME B” (priority 2022, published 2026).

Read-outs that look alike come from different tables or passages of the source. Numbered stars: 1 amine (or outer) side, 2 acyl side, 3 side chain; on linkers, the order of the positions; unused ones are H or OH. Bridge positions count the residues as written; N and C are the ends. Square brackets hold non-standard residues; d marks the D form. Peptide text beside a SMILES is read from it. I, II: the chains in the order shown. * marks the point of attachment. X4 = O=C(O)CN1CCN(CC(=O)O)CC(Cc2ccc(NC(=S)NCCC(=O)N(CCOCCOCCOCCOCCC(=O)[*:1])CCOCCOCCOCCOCCC(=O)[*:2])cc2)N(CC(=O)O)CC1; X3 = CC(C)(C)OC(=O)NCCC(=O)N(CCOCCOCCOCCOCCC(=O)[*:1])CCOCCOCCOCCOCCC(=O)[*:2]; X5 = O=C(CCOCCOCCOCCOCCOCCOCCOCCOCCOCCOCCOCCC(=O)[*:2])[*:1]; Pro(trans-4-F) = O=C(O)[C@@H]1C[C@@H](F)CN1; Propionyl = CCC(=O)*

The experiment deals with human Granzyme B (hGranzyme B) (Homo sapiens, UniProt P10144). Briefly: Surface plasmon resonance (SPR) binding kinetics to hGranzyme B. The method, then:
The kinetics of test peptide binding to human Granzyme B (hGranzyme B) was determined by SPR. All experiments were performed at 25° C. using the Biacore 8k+ instrument (Cytiva, Marlborough, MA). The Biacore 8k+ Insight Evaluation Software Version 3.0 was used to fit the data with a 1:1 binding model to determine the association rate constant ka (M^−1s^−1, where “M” ~equals molar and “s” ~equals seconds) and the dissociation rate constant kd (s^−1). These rate constants were used to calculate the equilibrium dissociation constant. KD (M)=kd/ka.
To measure the binding kinetics of peptides of interest, surfaces were prepared by a capture method to a Series S Streptavidin (SA) chip using a 1×HBS-EP+ running buffer (Cytiva). hGranzyme B was diluted to 10 μg/mL in IX HBS-EP+ and flowed over spot 2 of each flow cell on the chip at a flow rate of 10 ul/min for 20 s to achieve a level of capture of ~1100 RU. An unmodified spot 1 of each flow cell was used as a matrix binding control or reference surface. Binding kinetics were measured using single cycle kinetics at 25° C. by injecting 5 concentrations with 3-fold serial dilutions of test peptides from 0.01 μM to 1 μM. Compound dilutions were performed manually in a running buffer containing 1×HBS-EP+(Cytiva), and a final concentration of 2% DMSO. The interaction analyses over hGranzyme B, were performed using a 120 s association time and a 900 s dissociation time. All experiments were conducted at a flow rate of 50 μL/min with a data collection rate of 10 Hz.
Peptide dilution series included 2 zero concentration points (no compound) which were averaged and subtracted from the peptide concentration injection as DMSO control responses. Binding data acquired from the reference surface (matrix binding control) were subtracted from the binding data for hGranzyme B surface on the chip to determine specific binding. Next, the association phase data were solvent corrected to account for any signal fluctuation throughout the experiment due to subtle DMSO concentration differences. Corrected response data were analyzed using the Biacore 8k+ Evaluation Software Version 3.0 according to the manufacturer. SPR data for representative compounds of the disclosure are found in Table 8.
In general terms: Surface plasmon resonance follows binding to a sensor surface in real time, without labels.

Where [1] appears, read: 25° C., 1:1 binding model, KD=kd/ka, read-out: Granzyme B SPR Kd.

For `C[C@@H]1NC(=O)[C@H](CO)NC(=O)[C@H](CCC(N)=O)NC(=O)[C@H](CC(=O)O)NC(=O)[C@H](CCC(=O)O)NC(=O)[C@H](Cc2ccccc2)NC(=O)[C@H](CC(N)=O)NC(=O)[C@H](Cc2ccccc2)NC(=O)CSC[C@@H](C(=O)NCC(=O)NCC(=O)N[C@@H](CCCCNC(=O)CCOCCOCCOCCOCCN(CCOCCOCCOCCOCCC(=O)NCCCC[C@H](NC(=O)CNC(=O)CNC(=O)[C@@H]2CSCC(=O)N[C@@H](Cc3ccccc3)C(=O)N[C@@H](CC(N)=O)C(=O)N[C@@H](Cc3ccccc3)C(=O)N[C@@H](CCC(=O)O)C(=O)N[C@@H](CC(=O)O)C(=O)N[C@@H](CCC(N)=O)C(=O)N[C@@H](CO)C(=O)N[C@@H](C)C(=O)N[C@@H](CC(=O)O)C(=O)N[C@@H]([C@@H](C)O)C(=O)N[C@@H](Cc3c[nH]c4ccccc34)C(=O)N[C@@H](CCC(N)=O)C(=O)N3CCC[C@H]3C(=O)N2)C(N)=O)C(=O)CCNC(=O)OC(C)(C)C)C(N)=O)NC(=O)[C@@H]2CCCN2C(=O)[C@H](CCC(N)=O)NC(=O)[C@H](Cc2c[nH]c3ccccc23)NC(=O)[C@H]([C@@H](C)O)NC(=O)[C@H](CC(=O)O)NC1=O` [Compound 7a, (*F.N.F.E.D.Q.S.A.D.T.W.Q.P.*C.G.G.K.NH2)-bis(PEG4)-β-Ala(Boc)-(*F.N.F.E.D.Q.S.A.D.T.W.Q.P.*C.G.G.K.NH2)] (I: {CH2CO}-FNFEDQSADTWQPCGGK-NH2 / II: {CH2CO}-FNFEDQSADTWQPCGGK-NH2; linker I:17-II:17 via X3; thioether I:N-I:14, II:N-II:14), under setting [1], the dissociation constant Kd (commonly the free concentration of one partner at which half of the binding sites on the other are occupied at equilibrium, for simple one-to-one binding) is less than 0.1 nM.

For the compound `C[C@@H]1NC(=O)[C@H](CO)NC(=O)[C@H](CCC(N)=O)NC(=O)[C@H](CC(=O)O)NC(=O)[C@H](CCC(=O)O)NC(=O)[C@H](Cc2ccccc2)NC(=O)[C@H](CC(N)=O)NC(=O)[C@H](Cc2ccccc2)NC(=O)CSC[C@@H](C(=O)NCC(=O)NCC(=O)N[C@H](CCCCNC(=O)CCOCCOCCOCCOCCN(CCOCCOCCOCCOCCC(=O)NCCCC[C@@H](NC(=O)CNC(=O)CNC(=O)[C@@H]2CSCC(=O)N[C@@H](Cc3ccccc3)C(=O)N[C@@H](CC(N)=O)C(=O)N[C@@H](Cc3ccccc3)C(=O)N[C@@H](CCC(=O)O)C(=O)N[C@@H](CC(=O)O)C(=O)N[C@@H](CCC(N)=O)C(=O)N[C@@H](CO)C(=O)N[C@@H](C)C(=O)N[C@@H](CC(=O)O)C(=O)N[C@@H]([C@@H](C)O)C(=O)N[C@@H](Cc3c[nH]c4ccccc34)C(=O)N[C@@H](CCC(N)=O)C(=O)N3CCC[C@H]3C(=O)N2)C(N)=O)C(=O)CCNC(=S)Nc2ccc(CC3CN(CC(=O)O)CCN(CC(=O)O)CCN3CC(=O)O)cc2)C(N)=O)NC(=O)[C@@H]2CCCN2C(=O)[C@H](CCC(N)=O)NC(=O)[C@H](Cc2c[nH]c3ccccc23)NC(=O)[C@H]([C@@H](C)O)NC(=O)[C@H](CC(=O)O)NC1=O` (stereo partly drawn) [Compound 8a, (*F.N.F.E.D.Q.S.A.D.T.W.Q.P.*C.G.G.K.NH2)-bis(PEG4)-β-Ala(NOTA-1)-(*F.N.F.E.D.Q.S.A.D.T.W.Q.P.*C.G.G.K.NH2)] (I: {CH2CO}-FNFEDQSADTWQPCGG[dK]-NH2 / II: {CH2CO}-FNFEDQSADTWQPCGG[dK]-NH2; linker I:17-II:17 via X4; thioether I:N-I:14, II:N-II:14), the Kd was less than 0.1 nM.

As for `CCC(=O)NCCCC[C@H](NC(=O)CNC(=O)CNC(=O)[C@@H]1CSCC(=O)N[C@@H](Cc2ccccc2)C(=O)N[C@@H](CC(N)=O)C(=O)N[C@@H](Cc2ccccc2)C(=O)N[C@@H](CCC(=O)O)C(=O)N[C@@H](CC(=O)O)C(=O)N[C@@H](CCC(N)=O)C(=O)N[C@@H](CO)C(=O)N2C[C@H](F)C[C@H]2C(=O)N[C@@H](CC(=O)O)C(=O)N[C@@H]([C@@H](C)O)C(=O)N[C@@H](Cc2c[nH]c3ccccc23)C(=O)N[C@@H](CCC(N)=O)C(=O)N2CCC[C@H]2C(=O)N1)C(N)=O` [Compound 14a, *F.N.F.E.D.Q.S.Prot4F.D.T.W.Q.P.*C.G.G.K(Prop).NH2] ({CH2CO}-FNFEDQS[Pro(trans-4-F)]DTWQPCGGK(Propionyl)-NH2; thioether N-14), the dissociation constant (Kd) under setting [1] worked out at 5.1 nM.

`CCC(=O)NCCCC[C@H](NC(=O)CNC(=O)CNC(=O)[C@@H]1CSCC(=O)N[C@@H](Cc2ccccc2)C(=O)N[C@@H](CC(N)=O)C(=O)N[C@@H](Cc2ccccc2)C(=O)N[C@@H](CCC(=O)O)C(=O)N[C@@H](CC(=O)O)C(=O)N[C@@H](CCC(N)=O)C(=O)N[C@@H](CO)C(=O)N2CCC[C@H]2C(=O)N[C@@H](CC(=O)O)C(=O)N[C@@H]([C@@H](C)O)C(=O)N[C@@H](Cc2c[nH]c3ccccc23)C(=O)N[C@@H](CCC(N)=O)C(=O)N2CCC[C@H]2C(=O)N1)C(N)=O` [Compound 15a, *F.N.F.E.D.Q.S.P.D.T.W.Q.P.*C.G.G.K(Prop).NH2] ({CH2CO}-FNFEDQSPDTWQPCGGK(Propionyl)-NH2; thioether N-14): the Kd under setting [1] came out at 3.7 nM.

Take `C[C@@H]1NC(=O)[C@H](CO)NC(=O)[C@H](CCC(N)=O)NC(=O)[C@H](CC(=O)O)NC(=O)[C@H](CCC(=O)O)NC(=O)[C@H](Cc2ccccc2)NC(=O)[C@H](CC(N)=O)NC(=O)[C@H](Cc2ccccc2)NC(=O)CSC[C@@H](C(=O)NCC(=O)NCC(=O)N[C@@H](CCCCNC(=O)CCOCCOCCOCCOCCOCCOCCOCCOCCOCCOCCOCCC(=O)NCCCC[C@H](NC(=O)CNC(=O)CNC(=O)[C@@H]2CSCC(=O)N[C@@H](Cc3ccccc3)C(=O)N[C@@H](CC(N)=O)C(=O)N[C@@H](Cc3ccccc3)C(=O)N[C@@H](CCC(=O)O)C(=O)N[C@@H](CC(=O)O)C(=O)N[C@@H](CCC(N)=O)C(=O)N[C@@H](CO)C(=O)N[C@@H](C)C(=O)N[C@@H](CC(=O)O)C(=O)N[C@@H]([C@@H](C)O)C(=O)N[C@@H](Cc3c[nH]c4ccccc34)C(=O)N[C@@H](CCC(N)=O)C(=O)N3CCC[C@H]3C(=O)N2)C(N)=O)C(N)=O)NC(=O)[C@@H]2CCCN2C(=O)[C@H](CCC(N)=O)NC(=O)[C@H](Cc2c[nH]c3ccccc23)NC(=O)[C@H]([C@@H](C)O)NC(=O)[C@H](CC(=O)O)NC1=O` [Compound 17a, (*F.N.F.E.D.Q.S.A.D.T.W.Q.P.*C.G.G.K.NH2)-PEG11-(*F.N.F.E.D.Q.S.A.D.T.W.Q.P.*C.G.G.K.NH2)] (I: {CH2CO}-FNFEDQSADTWQPCGGK-NH2 / II: {CH2CO}-FNFEDQSADTWQPCGGK-NH2; linker I:17-II:17 via X5 (inferred); thioether I:N-I:14, II:N-II:14 (inferred)): the dissociation constant Kd under setting [1] is less than 0.3 nM.
